#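 Tested at 5 concentrations; 48 h exposure; 96-well plates; endpoints linearly interpolated, else capped at highest concentration. Here, GI50 denotes the concentration required for 50% inhibition of growth.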 The source made the active and inactive calls. Rule as the data show it: active = GI50 up to about 1.1 µM and inactive = higher.
# Assays:
# Experiment in all cases: DTP human tumour cell line panel, 48 h
# SN12C = test system: SN12C
# HL-60 = test system: HL-60
# NCI-H226 = test system: NCI-H226
# SF-295 = test system: SF-295
# UO-31 = test system: UO-31
# RPMI-8226 = test system: RPMI-8226
# IGROV-1 = test system: IGROV-1
# SF-539 = test system: SF-539
# KM12 = test system: KM12
# HCT-15 = test system: HCT-15
# M14 = test system: M14
# OVCAR-8 = test system: OVCAR-8
# A549 = test system: A549
# UACC-62 = test system: UACC-62
# NCI-H522 = test system: NCI-H522
# U-251 = test system: U-251
# Malme-3M = test system: Malme-3M
# EKVX = test system: EKVX
# 786-0 = test system: 786-0
# LOX IMVI = test system: LOX IMVI
# A498 = test system: A498
# SW-620 = test system: SW-620
# TK-10 = test system: TK-10
# HOP-18 = test system: HOP-18
# XF498 = test system: XF498
# K562 = test system: K562
# LXFL 529 = test system: LXFL 529
# HOP-62 = test system: HOP-62
# ACHN = test system: ACHN
# NCI-H460 = test system: NCI-H460
# HT-29 = test system: HT-29
# DMS-114 = test system: DMS-114
# SF-268 = test system: SF-268
# CAKI-1 = test system: CAKI-1
# SK-MEL-2 = test system: SK-MEL-2
# SK-OV-3 = test system: SK-OV-3
# RXF 631 = test system: RXF 631
# CCRF-CEM = test system: CCRF-CEM
# OVCAR-4 = test system: OVCAR-4
# RXF 393 = test system: RXF 393
# SNB-19 = test system: SNB-19
# MOLT-4 = test system: MOLT-4
# HOP-92 = test system: HOP-92
# SK-MEL-28 = test system: SK-MEL-28
# COLO 205 = test system: COLO 205
# KM-20L2 = test system: KM-20L2
# NCI-H23 = test system: NCI-H23
# DMS-273 = test system: DMS-273
# HCT-116 = test system: HCT-116
# SK-MEL-5 = test system: SK-MEL-5
# OVCAR-3 = test system: OVCAR-3
# SNB-75 = test system: SNB-75
# UACC-257 = test system: UACC-257
# OVCAR-5 = test system: OVCAR-5
# DLD-1 = test system: DLD-1
# SR = test system: SR
# HCC 2998 = test system: HCC 2998
# SNB-78 = test system: SNB-78
structure (smiles),measurement,setting,value
CN1CCCC2[C@@H]3CCC4=C(O)C(=O)CC[C@]4(C)C3CC[C@@]21C (some centres not stated),GI50,SN12C,> 100 µM (inactive)
same,GI50,HL-60,> 100 µM (inactive)
same,GI50,NCI-H226,> 100 µM (inactive)
same,GI50,SF-295,> 100 µM (inactive)
same,GI50,UO-31,> 100 µM (inactive)
same,GI50,RPMI-8226,> 100 µM (inactive)
same,GI50,IGROV-1,> 100 µM (inactive)
same,GI50,SF-539,> 100 µM (inactive)
same,GI50,KM12,> 100 µM (inactive)
same,GI50,HCT-15,> 100 µM
same,GI50,M14,> 100 µM (inactive)
same,GI50,OVCAR-8,> 100 µM (inactive)
same,GI50,A549,> 100 µM (inactive)
same,GI50,UACC-62,> 100 µM (inactive)
same,GI50,NCI-H522,> 100 µM (inactive)
same,GI50,U-251,> 100 µM (inactive)
same,GI50,Malme-3M,> 100 µM (inactive)
same,GI50,EKVX,> 100 µM (inactive)
same,GI50,786-0,> 100 µM (inactive)
same,GI50,LOX IMVI,> 100 µM (inactive)
same,GI50,A498,> 100 µM (inactive)
same,GI50,SW-620,> 100 µM (inactive)
same,GI50,TK-10,> 100 µM (inactive)
same,GI50,HOP-18,> 100 µM (inactive)
same,GI50,XF498,> 100 µM (inactive)
same,GI50,K562,> 100 µM (inactive)
same,GI50,LXFL 529,> 100 µM (inactive)
same,GI50,HOP-62,> 100 µM (inactive)
same,GI50,ACHN,> 100 µM (inactive)
same,GI50,NCI-H460,> 100 µM (inactive)
same,GI50,HT-29,> 100 µM (inactive)
same,GI50,DMS-114,> 100 µM (inactive)
same,GI50,SF-268,> 100 µM (inactive)
same,GI50,CAKI-1,> 100 µM (inactive)
same,GI50,SK-MEL-2,1.4 µM (inactive)
same,GI50,SK-OV-3,> 100 µM (inactive)
same,GI50,RXF 631,> 100 µM (inactive)
same,GI50,CCRF-CEM,> 100 µM (inactive)
same,GI50,OVCAR-4,> 100 µM (inactive)
same,GI50,RXF 393,> 100 µM (inactive)
same,GI50,SNB-19,> 100 µM (inactive)
same,GI50,MOLT-4,> 100 µM (inactive)
same,GI50,HOP-92,> 100 µM (inactive)
same,GI50,SK-MEL-28,> 100 µM (inactive)
same,GI50,COLO 205,> 100 µM (inactive)
same,GI50,KM-20L2,> 100 µM (inactive)
same,GI50,NCI-H23,> 100 µM (inactive)
same,GI50,DMS-273,> 100 µM (inactive)
same,GI50,HCT-116,> 100 µM (inactive)
same,GI50,SK-MEL-5,> 100 µM (inactive)
same,GI50,OVCAR-3,> 100 µM (inactive)
same,GI50,SNB-75,> 100 µM (inactive)
same,GI50,UACC-257,> 100 µM (inactive)
same,GI50,OVCAR-5,> 100 µM (inactive)
O=S(=O)(O)C1=C2Sc3ccccc3N=C2c2ccccc2C1,GI50,SN12C,13.8 µM (inactive)
same,GI50,HL-60,3.76 µM (inactive)
same,GI50,NCI-H226,20.3 µM (inactive)
same,GI50,SF-295,13.8 µM (inactive)
same,GI50,DLD-1,15.3 µM (inactive)
same,GI50,UO-31,19.4 µM (inactive)
same,GI50,RPMI-8226,7.48 µM (inactive)
same,GI50,IGROV-1,14.3 µM (inactive)
same,GI50,SF-539,11.9 µM (inactive)
same,GI50,KM12,15.8 µM (inactive)
same,GI50,HCT-15,13.6 µM
same,GI50,M14,12.7 µM (inactive)
same,GI50,SR,3.14 µM (inactive)
same,GI50,OVCAR-8,16.9 µM (inactive)
same,GI50,A549,16.2 µM (inactive)
same,GI50,UACC-62,13.2 µM (inactive)
same,GI50,NCI-H522,16.7 µM (inactive)
same,GI50,U-251,12.5 µM (inactive)
same,GI50,Malme-3M,15.8 µM (inactive)
same,GI50,EKVX,13.8 µM (inactive)
same,GI50,786-0,17.5 µM (inactive)
same,GI50,LOX IMVI,12.4 µM (inactive)
same,GI50,A498,18.6 µM (inactive)
same,GI50,SW-620,15.3 µM (inactive)
same,GI50,TK-10,18.4 µM (inactive)
same,GI50,HOP-18,12.4 µM (inactive)
same,GI50,XF498,17.7 µM (inactive)
same,GI50,K562,10.5 µM (inactive)
same,GI50,LXFL 529,12.2 µM (inactive)
same,GI50,HOP-62,20.1 µM (inactive)
same,GI50,ACHN,12.5 µM (inactive)
same,GI50,NCI-H460,19.5 µM (inactive)
same,GI50,HT-29,20.3 µM (inactive)
same,GI50,DMS-114,10.3 µM (inactive)
same,GI50,SF-268,14.1 µM (inactive)
same,GI50,CAKI-1,20.1 µM (inactive)
same,GI50,SK-MEL-2,14.6 µM (inactive)
same,GI50,SK-OV-3,29.2 µM (inactive)
same,GI50,RXF 631,16 µM (inactive)
same,GI50,CCRF-CEM,3.43 µM (inactive)
same,GI50,OVCAR-4,16.8 µM (inactive)
same,GI50,RXF 393,19.5 µM (inactive)
same,GI50,SNB-19,22.4 µM (inactive)
same,GI50,MOLT-4,4.88 µM (inactive)
same,GI50,HCC 2998,12.2 µM (inactive)
same,GI50,HOP-92,10.3 µM (inactive)
same,GI50,SK-MEL-28,17.3 µM (inactive)
same,GI50,SNB-78,17.8 µM (inactive)
same,GI50,COLO 205,16.5 µM (inactive)
same,GI50,KM-20L2,18.4 µM (inactive)
same,GI50,NCI-H23,16.4 µM (inactive)
same,GI50,DMS-273,15.5 µM (inactive)
same,GI50,HCT-116,15.2 µM (inactive)
same,GI50,SK-MEL-5,13.2 µM (inactive)
same,GI50,OVCAR-3,17.5 µM (inactive)
same,GI50,SNB-75,18.5 µM (inactive)
same,GI50,UACC-257,17.1 µM (inactive)
same,GI50,OVCAR-5,20.2 µM (inactive)
